This passage reports IC50 and viability, T/C results from PubChem BioAssay AID2060910 (Molecular Pharmacology Branch, DTP, NCI, 2025).

Values joined by “and” are separate entries in the source; they are usually repeats but may differ in a detail not shown here. Equal values may be shown once. Bounds are passed on as bounds.

In general, IC50 refers to the point on the concentration scale where inhibition reaches its midpoint. One may read the viability, T/C as the result in the treated group divided by that in the control group, in per cent.

This assay relates to 242566-281-R-J2-PDC complex spheroid viability. The experiment in a line: Anticancer human tumor 242566-281-R-J2-PDC patient-derived pancreatic carcinoma cell line growth inhibition [RAS]. The following applies: for viability, T/C: stronger effect = lower value. In a few lines: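 Tumour cells grown as complex spheroids with HUVEC endothelial cells and mesenchymal stem cells, treated with RAS pathway inhibitor combinations. Each agent spans half-log steps from near clinical Cmax, or 10 microM where Cmax is unknown.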

Setting [1] is: curve of first compound, second compound 0.000949 µM.
Setting [2] is: curve of first compound, second compound 0.003 µM.
Where [3] appears, read: curve of first compound, second compound 0.00949 µM.
The mark [4] stands for this setting: curve of first compound, second compound 0.03 µM.
Where [5] appears, read: curve of first compound, second compound 0.0949 µM.
The mark [6] stands for this setting: curve of first compound, second compound 0.3 µM.
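Also: spheroids exposed to compound for 7 days before readout.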
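For viability, T/C in this document: 100% = DMSO vehicle control wells.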

Regarding `CC(=O)OC12COC1CC(O)C1(C)C(=O)C(O)C3=C(C)C(OC(=O)C(O)C(NC(=O)OC(C)(C)C)c4ccccc4)CC(O)(C(OC(=O)c4ccccc4)C21)C3(C)C` (centres undefined) + CCn1c(-c2cccnc2C(C)OC)c2c3cc(ccc31)N1CCOC(CC(NC(=O)C(C(C)C)N(C)C(=O)C3(F)CCN(C(=O)C#CC(C)(C)N(C)C)CC3)C(=O)N3CCCC(N3)C(=O)OCC(C)(C)C2)C1, the IC50 is less than 0.0316 µM under setting [1]; less than 0.0316 µM under setting [2]; less than 0.0316 µM under setting [3]; less than 0.0316 µM under setting [4]; less than 0.0316 µM under setting [5]; less than 0.0316 µM under setting [6]. In addition, the viability, T/C reads like this: (second compound 0.000949 µM, first compound 0.0316 µM) 47.2%; (second compound 0.000949 µM, first compound 0.1 µM) 33.6%; (second compound 0.000949 µM, first compound 0.316 µM) 26.5%; (second compound 0.000949 µM, first compound 1 µM) 35.8%; (second compound 0.000949 µM, first compound 3.16 µM) 40.1%; (second compound 0.000949 µM, first compound 10 µM) 38.8%. The viability, T/C reads like this: (second compound 0.003 µM, first compound 0.0316 µM) 40.7%; (second compound 0.003 µM, first compound 0.1 µM) 30.1%; (second compound 0.003 µM, first compound 0.316 µM) 32.4%; (second compound 0.003 µM, first compound 1 µM) 35.7%; (second compound 0.003 µM, first compound 3.16 µM) 40.7%; (second compound 0.003 µM, first compound 10 µM) 33.9%. The viability, T/C is, setting by setting: (second compound 0.00949 µM, first compound 0.0316 µM) 46.7%; (second compound 0.00949 µM, first compound 0.1 µM) 32.3%; (second compound 0.00949 µM, first compound 0.316 µM) 35.8%; (second compound 0.00949 µM, first compound 1 µM) 37.7%; (second compound 0.00949 µM, first compound 3.16 µM) 35.9%; (second compound 0.00949 µM, first compound 10 µM) 34.9%. The viability, T/C was 43.2% (second compound 0.03 µM, first compound 0.0316 µM); 33.9% (second compound 0.03 µM, first compound 0.1 µM); 31.8% (second compound 0.03 µM, first compound 0.316 µM); 34.6% (second compound 0.03 µM, first compound 1 µM); 29.3% (second compound 0.03 µM, first compound 3.16 µM); 43.4% (second compound 0.03 µM, first compound 10 µM). In addition, the viability, T/C (second compound 0.0949 µM, first compound 0.0316 µM) was 36.9%; the viability, T/C (second compound 0.0949 µM, first compound 0.1 µM) was 34.5%; the viability, T/C (second compound 0.0949 µM, first compound 0.316 µM) was 31.4%; the viability, T/C (second compound 0.0949 µM, first compound 1 µM) is 33.2%; the viability, T/C (second compound 0.0949 µM, first compound 3.16 µM) was 27.9%; the viability, T/C (second compound 0.0949 µM, first compound 10 µM) was 40.3%. In addition, the viability, T/C is, setting by setting: (second compound 0.3 µM, first compound 0.0316 µM) 26.3%; (second compound 0.3 µM, first compound 0.1 µM) 27%; (second compound 0.3 µM, first compound 0.316 µM) 26.2%; (second compound 0.3 µM, first compound 1 µM) 20.2%; (second compound 0.3 µM, first compound 3.16 µM) 27%; (second compound 0.3 µM, first compound 10 µM) 29.4%.

Take `Cc1nc(N2CCC3(CC2)COC(C)C3N)c(CO)nc1Sc1ccnc(N)c1Cl` (centres undefined): the viability, T/C is 119% and 98.2% and 102% (2×) (compound 0.0316 µM); 94.2% [middle of 4 runs] (compound 0.316 µM); 85.4% [middle of 4 runs] (compound 1 µM). Besides, the IC50 (curve of compound) is greater than 10 µM.

For the molecule `C[C@@H](NC(=O)c1ncnc(N)c1Cl)c1ncc(C(=O)Nc2cc(C(F)(F)F)c(Cl)cn2)s1`, the viability, T/C (compound 0.0316 µM) is 116% [middle of 4 runs]; the viability, T/C (compound 0.1 µM) is 114% [middle of 4 runs]; the viability, T/C (compound 0.316 µM) is 110% [middle of 4 runs]; the viability, T/C (compound 1 µM) is 118% [middle of 4 runs]; the viability, T/C (compound 3.16 µM) was 106% [middle of 4 runs]. For the setting “curve of compound”, the IC50 is greater than 10 µM.

Consider `CC1(C)CCC(Nc2ncc(C(F)(F)F)c(-c3c[nH]c4c(P(C)(C)=O)c(C#N)ccc34)n2)CN1` (centres undefined) + CCn1c(-c2cc(N3CCN(C)CC3)cnc2C(C)OC)c2c3cc(ccc31)-c1csc(n1)CC(NC(=O)C1CC1C)C(=O)N1CCCC(N1)C(=O)OCC(C)(C)C2, for which the IC50 reads like this: under setting [1], greater than 0.3 µM; under setting [2], greater than 0.3 µM; under setting [3], less than 0.000949 µM; under setting [4], less than 0.000949 µM; under setting [5], less than 0.000949 µM; under setting [6], less than 0.000949 µM. For the same molecule, the viability, T/C is 101% (second compound 0.000949 µM, first compound 0.000949 µM); 98% (second compound 0.000949 µM, first compound 0.003 µM); 73.5% (second compound 0.000949 µM, first compound 0.00949 µM); 88% (second compound 0.000949 µM, first compound 0.03 µM); 85.3% (second compound 0.000949 µM, first compound 0.0949 µM); 61.3% (second compound 0.000949 µM, first compound 0.3 µM). For the same molecule, the viability, T/C by setting is: (second compound 0.003 µM, first compound 0.000949 µM) 81.6%; (second compound 0.003 µM, first compound 0.003 µM) 69.6%; (second compound 0.003 µM, first compound 0.00949 µM) 63.8%; (second compound 0.003 µM, first compound 0.03 µM) 67.8%; (second compound 0.003 µM, first compound 0.0949 µM) 68.3%; (second compound 0.003 µM, first compound 0.3 µM) 48.8%. For the same molecule, the viability, T/C was 49.6% (second compound 0.00949 µM, first compound 0.000949 µM); 39.9% (second compound 0.00949 µM, first compound 0.003 µM); 45.5% (second compound 0.00949 µM, first compound 0.00949 µM); 39.3% (second compound 0.00949 µM, first compound 0.03 µM); 35.5% (second compound 0.00949 µM, first compound 0.0949 µM); 36% (second compound 0.00949 µM, first compound 0.3 µM). The viability, T/C was 30.7% (second compound 0.03 µM, first compound 0.000949 µM); 32.9% (second compound 0.03 µM, first compound 0.003 µM); 30.2% (second compound 0.03 µM, first compound 0.00949 µM); 27.8% (second compound 0.03 µM, first compound 0.03 µM); 19.6% (second compound 0.03 µM, first compound 0.0949 µM); 27.2% (second compound 0.03 µM, first compound 0.3 µM). Further, the viability, T/C (second compound 0.0949 µM, first compound 0.000949 µM) is 22.5%; the viability, T/C (second compound 0.0949 µM, first compound 0.003 µM) was 24.8%; the viability, T/C (second compound 0.0949 µM, first compound 0.00949 µM) is 21.6%; the viability, T/C (second compound 0.0949 µM, first compound 0.03 µM) is 21.6%; the viability, T/C (second compound 0.0949 µM, first compound 0.0949 µM) was 19.4%; the viability, T/C (second compound 0.0949 µM, first compound 0.3 µM) is 23.6%. Moreover, the viability, T/C is 21.6% (second compound 0.3 µM, first compound 0.000949 µM); 19.4% (second compound 0.3 µM, first compound 0.003 µM); 21.3% (second compound 0.3 µM, first compound 0.00949 µM); 17.5% (second compound 0.3 µM, first compound 0.03 µM); 18.6% (second compound 0.3 µM, first compound 0.0949 µM); 18.3% (second compound 0.3 µM, first compound 0.3 µM).
